From ChEMBL document CHEMBL3779780, “Chroman-4-one and chromone based somatostatin β-turn mimetics” (Eur J Med Chem, 2016) come the findings set out here.

For experiment [1], the target named is T1, Somatostatin receptor type 4 (Homo sapiens, UniProt P31391). As to the kind of experiment: Displacement of [125I]tyr11-SRIF from human sst4 receptor after 60 mins by liquid scintillation counting method. A general note: Loss of bound radioactivity is the signal in a displacement assay; it reports binding, not function.
Experiment [2] addresses T2, Somatostatin receptor type 2 (Homo sapiens, UniProt P30874). As to the kind of experiment: Displacement of [125I]tyr11-SRIF from human sst2 receptor after 60 mins by liquid scintillation counting method.
Experiment [3] deals with T1, Somatostatin receptor type 4. Description: Binding affinity to human sst4 receptor.
Experiment [4] deals with T2, Somatostatin receptor type 2. Description: Binding affinity to human sst2 receptor.
Experiment [5] addresses T1, Somatostatin receptor type 4. Description: Displacement of [125I]-SRIF14 from human sst4 receptor.

T1 sequence (P31391 whole entry): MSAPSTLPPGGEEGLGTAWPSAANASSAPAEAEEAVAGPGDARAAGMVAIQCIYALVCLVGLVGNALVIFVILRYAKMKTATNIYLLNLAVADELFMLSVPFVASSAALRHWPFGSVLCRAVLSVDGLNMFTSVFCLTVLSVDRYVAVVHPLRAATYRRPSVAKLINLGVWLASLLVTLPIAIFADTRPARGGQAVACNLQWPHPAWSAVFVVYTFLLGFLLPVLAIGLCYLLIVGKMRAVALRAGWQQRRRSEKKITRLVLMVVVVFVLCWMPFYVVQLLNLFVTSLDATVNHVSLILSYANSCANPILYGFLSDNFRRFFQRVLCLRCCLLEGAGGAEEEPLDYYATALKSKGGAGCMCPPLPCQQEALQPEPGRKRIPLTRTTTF
T2 sequence (P30874 whole entry): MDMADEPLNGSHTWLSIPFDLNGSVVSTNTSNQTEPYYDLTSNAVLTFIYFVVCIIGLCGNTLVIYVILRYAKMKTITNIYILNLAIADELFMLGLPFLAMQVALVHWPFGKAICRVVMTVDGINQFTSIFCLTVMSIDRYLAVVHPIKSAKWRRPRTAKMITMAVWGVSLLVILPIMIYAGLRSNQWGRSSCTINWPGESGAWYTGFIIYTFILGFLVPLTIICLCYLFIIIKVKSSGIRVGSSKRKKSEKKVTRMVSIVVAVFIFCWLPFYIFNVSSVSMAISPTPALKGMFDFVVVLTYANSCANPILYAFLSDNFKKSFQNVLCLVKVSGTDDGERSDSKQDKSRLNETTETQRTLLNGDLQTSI

As a reminder, the Ki is the equilibrium dissociation constant of an inhibitor or competing ligand from its target. A high value points to a looser hold on the target. For `NCCCc1cc(Cl)cc2c(=O)cc(CCc3cccc4ccccc34)oc12`, the Ki in experiment [1] came out at 1170 nM; in experiment [2] it was 2660 nM.

Take `NCCCCCOc1ccccc1OCCc1c[nH]c2ccccc12`: the Ki is 2020 nM in experiment [3] and 4690 nM in experiment [4].

In turn, `CC(C)CC[C@]1(Cc2ccccc2)NC=C([C@@]2(Cc3ccccc3)NC=C([C@]3(CCCN)NC=C([C@@]4(CC(C)C)NC=C(Cc5ccccc5)C4=O)C3=O)C2=O)C1=O` came in with an inhibitory constant (Ki) in experiment [5] of 2050 nM.

For `NCCCc1cc(Cl)cc2c1OC(CCc1cccc3ccccc13)CC2=O` (racemic), the Ki in experiment [1] was found to be 7090 nM; in experiment [2], 6850 nM.
